# Test results reported in patent US20240041042A1, “1-(PYRIDYL)-5-AZINYLPYRAZOLE DERIVATIVES, AND THEIR USE FOR CONTROL OF UNDESIRED PLANT GROWTH” (Bayer Aktiengesellschaft, priority 2020, published 2024).
# Where two headings read alike, the source gives them in different places.
# Experiments:
# Format in all cases: in vivo
# [1] = test system: Oryza sativa (ORYSA); conditions: pre-emergence, 80 g/ha, crop plant compatibility, in comparison to untreated controls
# How it was run: (§1)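 Scoring: visual, % of untreated control, about 3 weeks after a pre-emergence application to the soil surface. Application used WP or EC formulations diluted in water with 0.5% additive at 600 l/ha; dosage levels are marked by suffixes a, b and c.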
# [2] = test system: Matricaria inodora (MATIN); test: Pre-emergence herbicidal action against MATIN
# How it was run: (§2)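 Read-out is visual percent damage relative to untreated pots, with 100% meaning dead plants and 0% meaning no difference, assessed roughly three weeks after treatment. Compounds were applied pre-emergence to the covering soil at up to 320 g/ha.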
# [3] = test system: Avena fatua (AVEFA); test: Post-emergence herbicidal action against AVEFA; conditions: visual rating about 3 weeks after treatment
# How it was run: (§3)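 Post-emergence greenhouse spray, one-leaf stage, 600 l/ha water plus 0.5% additive; WP or EC formulations; application rates 320 g/ha or lower. Visual % damage vs untreated controls at ~3 weeks.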
# [4] = test system: Echinochloa crus-galli (ECHCG); test: Pre-emergence herbicidal action against ECHCG
# How it was run: as §2
# [5] = test system: Alopecurus myosuroides (ALOMY); test: Pre-emergence herbicidal action against ALOMY; conditions: scored visually after about 3 weeks, 100% = plants have died
# How it was run: as §2
# [6] = test system: Amaranthus retroflexus (AMARE); test: Pre-emergence herbicidal action against AMARE; conditions: visual scoring after about 3 weeks vs untreated controls
# How it was run: as §2
# [7] = test system: Alopecurus myosuroides (ALOMY); test: Post-emergence herbicidal action against ALOMY; conditions: visual rating about 3 weeks after treatment vs untreated controls (100% = plants have died, 0% = like control plants)
# How it was run: as §3
# [8] = test system: Viola tricolor (VIOTR); test: Pre-emergence herbicidal action against VIOTR
# How it was run: as §2
# [9] = test system: Setaria viridis (SETVI); test: Pre-emergence herbicidal action against SETVI; conditions: dosage 320 g/ha
# How it was run: as §2
# [10] = test system: Lolium rigidum (LOLRI); test: Pre-emergence herbicidal action against LOLRI
# How it was run: as §2
# [11] = test system: Avena fatua (AVEFA); test: Pre-emergence herbicidal action against AVEFA; conditions: 320 g/ha, visual scoring after about 3 weeks vs untreated controls
# How it was run: as §2
# [12] = test system: Amaranthus retroflexus (AMARE); test: Post-emergence herbicidal action against AMARE
# How it was run: as §3
# [13] = test system: Setaria viridis (SETVI); test: Post-emergence herbicidal action against SETVI
# How it was run: as §3
# [14] = test system: Polygonum convolvulus (POLCO); test: Pre-emergence herbicidal action against POLCO
# How it was run: as §2
# [15] = test system: Lolium rigidum (LOLRI); test: Post-emergence herbicidal action against LOLRI
# How it was run: as §3
# [16] = test system: Oryza sativa (ORYSA); conditions: crop plant compatibility
# How it was run: (§4)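 Greenhouse crops in sandy loam sprayed post-emergence at the one-leaf stage, 2–3 weeks after sowing, with WP or EC formulations in water plus 0.5% additive at 600 l/ha. Damage rated visually about 3 weeks later versus untreated controls (0% = like control, 100% = dead); suffixes a–c denote different doses.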
# [17] = test system: Zea mays (ZEAMX)
# How it was run: as §4
# [18] = test system: Verconica persica (VERPE); test: Post-emergence herbicidal action against VERPE
# How it was run: as §3
# [19] = test system: Abutilon theophrasti (ABUTH); test: Post-emergence herbicidal action against ABUTH; conditions: 320 g/ha, visual rating about 3 weeks after treatment vs untreated controls (100% = plants have died, 0% = like control plants)
# How it was run: as §3
# [20] = test system: Echinochloa crus-galli (ECHCG); test: Post-emergence herbicidal action against ECHCG
# How it was run: as §3
# [21] = test system: Polygonum convolvulus (POLCO); test: Post-emergence herbicidal action against POLCO; conditions: dosage 320 g/ha
# How it was run: as §3
# [22] = test system: Pharbitis purpurea (PHBPU); test: Pre-emergence herbicidal action against PHBPU; conditions: dosage 320 g/ha
# How it was run: as §2
# [23] = test system: Verconica persica (VERPE); test: Pre-emergence herbicidal action against VERPE
# How it was run: as §2
# [24] = test system: Pharbitis purpurea (PHBPU); test: Post-emergence herbicidal action against PHBPU
# How it was run: as §3
# [25] = test system: Viola tricolor (VIOTR); test: Post-emergence herbicidal action against VIOTR; conditions: 320 g/ha
# How it was run: as §3
# [26] = test system: Zea mays (ZEAMX); conditions: pre-emergence, 80 g/ha, crop plant compatibility, in comparison to untreated controls
# How it was run: as §1
# [27] = test system: Digitaria sanguinalis (DIGSA); test: Pre-emergence herbicidal action against DIGSA; conditions: dosage 320 g/ha
# How it was run: as §2
# [28] = test system: Matricaria inodora (MATIN); test: Post-emergence herbicidal action against MATIN; conditions: dosage 320 g/ha
# How it was run: as §3
# [29] = test system: Triticum aestivum (TRZAS); conditions: crop plant compatibility, 80 g/ha, effect vs untreated controls
# How it was run: as §4
# [30] = 80 g/ha, effect in comparison to untreated controls
# [31] = 320 g/ha, visual rating about 3 weeks after treatment
Pre-emergence action against ORYSA in % [1] [%],"Post-emergence action against ORYSA in % [16, 30] [%]",SMILES,Pre-emergence action against MATIN in % ([2]; dosage 320 g/ha) [%],Post-emergence action against AVEFA in % ([3]; 80 g/ha) [%],Pre-emergence action against ECHCG in % ([4]; dosage 320 g/ha) [%],Pre-emergence action against ALOMY ([5]; 80 g/ha) [%],Pre-emergence action against ALOMY ([5]; 320 g/ha) [%],Pre-emergence action against AMARE in % ([6]; 320 g/ha) [%],Post-emergence action against ALOMY in % ([7]; 80 g/ha) [%],"Pre-emergence action against VIOTR in % ([8]; 320 g/ha, Viola tricolor) [%]",Pre-emergence action against SETVI in % [9] [%],Pre-emergence action against LOLRI in % ([10]; dosage 80 g/ha) [%],Pre-emergence action against LOLRI in % ([10]; dosage 320 g/ha) [%],Pre-emergence action against AVEFA in % [11] [%],Pre-emergence action against POLCO in % ([14]; dosage 320 g/ha) [%],Post-emergence action against LOLRI in % ([15]; dosage 80 g/ha) [%],"Post-emergence action against VERPE in % ([18]; 320 g/ha, VERPE) [%]",Pre-emergence action against AMARE in % ([6]; 80 g/ha) [%],"Post-emergence action against AMARE in % [12, 31] [%]",Post-emergence action against VIOTR in % [25] [%],other results
10,10,CCOC(=O)C(C)Oc1nn(-c2ccccn2)c(-c2ccc(F)nc2)c1C(F)(F)F (stereo not shown) [Example I-107],90,90,100,90,90,100,90,100,100,80,100,80,80,80,,,,,"Post-emergence action against AMARE in % ([12]; 80 g/ha, visual rating about 3 weeks after treatment vs untreated controls (100% = plants have died, 0% = like control plants)): 80%; Post-emergence action against SETVI in % ([13]; dosage 80 g/ha): 80%; Post-emergence action against ORYSA in % ([16]; 20 g/ha, effect vs untreated controls): 0%; Post-emergence action against ZEAMX in % (crop plant compatibility) ([17]; 20 g/ha, ZEAMX, effect in comparison to untreated controls): 20%"
20,20,CCOC(=O)[C@@H](C)Oc1nn(-c2nc(F)ccc2F)c(-c2ccc(F)nc2)c1Br [Example I-336],90,80,100,80,100,100,90,100,100,80,100,90,90,80,90,90,80,80,Post-emergence action against VERPE in % ([18]; dosage 80 g/ha): 80%; Pre-emergence action against MATIN in % ([2]; dosage 80 g/ha): 80%; Post-emergence action against ABUTH in % [19]: 80%; Post-emergence action against AVEFA in % ([3]; 320 g/ha): 90%; Pre-emergence action against ECHCG in % ([4]; dosage 80 g/ha): 80%; Post-emergence action against ECHCG in % ([20]; dosage 80 g/ha): 80%; Post-emergence action against ECHCG in % ([20]; dosage 320 g/ha): 80%; Post-emergence action against POLCO in % [21]: 80%; Post-emergence action against ALOMY in % ([7]; 320 g/ha): 90%; Pre-emergence action against VIOTR in % ([8]; dosage 80 g/ha): 90%; Pre-emergence action against PHBPU in % [22]: 80%; Pre-emergence action against VERPE in % ([23]; dosage 80 g/ha): 80%; Pre-emergence action against VERPE in % ([23]; dosage 320 g/ha): 90%; Post-emergence action against PHBPU in % ([24]; dosage 80 g/ha): 90%; Post-emergence action against PHBPU in % ([24]; dosage 320 g/ha): 100%; Post-emergence action against SETVI in % ([13]; dosage 320 g/ha): 80%; Pre-emergence action against POLCO in % ([14]; dosage 80 g/ha): 80%; Post-emergence action against LOLRI in % ([15]; dosage 320 g/ha): 80%
,0,COC(=O)CCOC(=O)COc1nn(-c2ccccn2)c(-c2ccc(Cl)nc2)c1Cl [Example I-243],,,,,,90,,,,,,,,,80,80,80,80,"Pre-emergence action against ZEAMX in % [26]: 10%; Pre-emergence action against DIGSA in % [27]: 80%; Post-emergence action against MATIN in % [28]: 80%; Post-emergence action against ORYSA in % ([16]; 320 g/ha, effect in comparison to untreated controls): 10%; Post-emergence action against TRZAS in % [29]: 20%; Post-emergence action against ZEAMX in % ([17]; crop plant compatibility, 80 g/ha, effect vs untreated controls): 0%"
